Measurements: PubChem BioAssay AID1963975 (Molecular Pharmacology Branch, DTP, NCI, 2024)
pIC50: −log10 of the molar value.

System: 624824-186-R-J2-PDC multicell spheroids, viability
Assay: Anticancer human tumor 624824-186-R-J2-PDC patient-derived colon adenocarcinoma cell line growth inhibition [PI3K]
Conditions: for pIC50: curve of first compound; for viability, T/C: stronger effect = lower value
Procedure, shortened: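 Stroma-containing spheroids: tumor line, pooled-donor HUVEC, hMSC. Treatments: targeted agents with PI3K inhibitors. Dosing: clinically relevant, half-log spacing, 10 microM ceiling without known Cmax. Read-out: cell viability.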

[1] = second compound 0.0316 µM, first compound 0.0316 µM
[2] = second compound 0.0316 µM, first compound 0.1 µM
[3] = second compound 0.0316 µM, first compound 0.316 µM
[4] = second compound 0.0316 µM, first compound 1 µM
[5] = second compound 0.0316 µM, first compound 3.16 µM
[6] = second compound 0.0316 µM, first compound 10 µM
[7] = second compound 0.1 µM, first compound 0.0316 µM
[8] = second compound 0.1 µM, first compound 0.1 µM
[9] = second compound 0.1 µM, first compound 0.316 µM
[10] = second compound 0.1 µM, first compound 1 µM
[11] = second compound 0.1 µM, first compound 3.16 µM
[12] = second compound 0.1 µM, first compound 10 µM
[13] = second compound 0.316 µM, first compound 0.0316 µM
[14] = second compound 0.316 µM, first compound 0.1 µM
[15] = second compound 0.316 µM, first compound 0.316 µM
[16] = second compound 0.316 µM, first compound 1 µM
[17] = second compound 0.316 µM, first compound 3.16 µM
[18] = second compound 0.316 µM, first compound 10 µM
[19] = second compound 1 µM, first compound 0.0316 µM
[20] = second compound 1 µM, first compound 0.1 µM
[21] = second compound 1 µM, first compound 0.316 µM
[22] = second compound 1 µM, first compound 1 µM
[23] = second compound 1 µM, first compound 3.16 µM
[24] = second compound 1 µM, first compound 10 µM
[25] = second compound 3.16 µM, first compound 0.0316 µM
[26] = second compound 3.16 µM, first compound 0.1 µM
[27] = second compound 3.16 µM, first compound 0.316 µM
[28] = second compound 3.16 µM, first compound 1 µM
[29] = second compound 3.16 µM, first compound 3.16 µM
[30] = second compound 3.16 µM, first compound 10 µM
[31] = second compound 10 µM, first compound 0.0316 µM
[32] = second compound 10 µM, first compound 0.1 µM
[33] = second compound 10 µM, first compound 0.316 µM
[34] = second compound 10 µM, first compound 1 µM
[35] = second compound 10 µM, first compound 3.16 µM
[36] = second compound 10 µM, first compound 10 µM
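Further: spheroids exposed to agents for 7 days before viability read.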
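Wherever viability, T/C is given: 100% = DMSO vehicle treated spheroids.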

CC1(C)CCC(CN2CCN(c3ccc(C(=O)NS(=O)(=O)c4ccc(NCC5CCOCC5)c([N+](=O)[O-])c4)c(Oc4cnc5[nH]ccc5c4)c3)CC2)=C(c2ccc(Cl)cc2)C1 + Cc1nc(NC(=O)N2CCCC2C(N)=O)sc1-c1ccnc(C(C)(C)C(F)(F)F)c1
pIC50 (second compound 0.0316 µM): < 5.00 | pIC50 (second compound 0.1 µM): < 5.00 | pIC50 (second compound 0.316 µM): < 5.00 | pIC50 (second compound 1 µM): < 5.00 | pIC50 (second compound 3.16 µM): < 5.00 | pIC50 (second compound 10 µM): 5.16 | viability, T/C [1]: 103% | viability, T/C [2]: 93.7% | viability, T/C [3]: 95.9% | viability, T/C [4]: 68.5% | viability, T/C [5]: 70.9% | viability, T/C [6]: 67.1% | viability, T/C [7]: 84.3% | viability, T/C [8]: 88.3% | viability, T/C [9]: 88.2% | viability, T/C [10]: 80.8% | viability, T/C [11]: 84.1% | viability, T/C [12]: 51.7% | viability, T/C [13]: 82.9% | viability, T/C [14]: 86.9% | viability, T/C [15]: 75.6% | viability, T/C [16]: 72.1% | viability, T/C [17]: 67.1% | viability, T/C [18]: 67.5% | viability, T/C [19]: 91.3% | viability, T/C [20]: 78.9% | viability, T/C [21]: 79.6% | viability, T/C [22]: 80.3% | viability, T/C [23]: 100% | viability, T/C [24]: 77.3% | viability, T/C [25]: 68.1% | viability, T/C [26]: 76.9% | viability, T/C [27]: 80.3% | viability, T/C [28]: 94.7% | viability, T/C [29]: 83.6% | viability, T/C [30]: 50.4% | viability, T/C [31]: 73% | viability, T/C [32]: 79.4% | viability, T/C [33]: 68.5% | viability, T/C [34]: 74.3% | viability, T/C [35]: 82.6% | viability, T/C [36]: 37.9%

CCCS(=O)(=O)Nc1ccc(F)c(C(=O)c2c[nH]c3ncc(-c4ccc(Cl)cc4)cc23)c1F + Cc1nc(NC(=O)N2CCCC2C(N)=O)sc1-c1ccnc(C(C)(C)C(F)(F)F)c1
pIC50 (second compound 0.0316 µM): < 5.00 | pIC50 (second compound 0.1 µM): 5.15 | pIC50 (second compound 0.316 µM): 5.18 | pIC50 (second compound 1 µM): 5.29 | pIC50 (second compound 3.16 µM): 5.98 | pIC50 (second compound 10 µM): 6.34 | viability, T/C [1]: 68% | viability, T/C [2]: 77.2% | viability, T/C [3]: 61.6% | viability, T/C [4]: 76.8% | viability, T/C [5]: 87.3% | viability, T/C [6]: 42.2% | viability, T/C [7]: 84% | viability, T/C [8]: 64.8% | viability, T/C [9]: 61.2% | viability, T/C [10]: 91.9% | viability, T/C [11]: 96.5% | viability, T/C [12]: 37.7% | viability, T/C [13]: 72.3% | viability, T/C [14]: 72.7% | viability, T/C [15]: 53.8% | viability, T/C [16]: 73.1% | viability, T/C [17]: 78.1% | viability, T/C [18]: 38.9% | viability, T/C [19]: 74.6% | viability, T/C [20]: 50.7% | viability, T/C [21]: 54.4% | viability, T/C [22]: 65.6% | viability, T/C [23]: 75.9% | viability, T/C [24]: 30.4% | viability, T/C [25]: 79.6% | viability, T/C [26]: 60.6% | viability, T/C [27]: 56.4% | viability, T/C [28]: 51.7% | viability, T/C [29]: 52% | viability, T/C [30]: 23.2% | viability, T/C [31]: 58.7% | viability, T/C [32]: 50% | viability, T/C [33]: 49.9% | viability, T/C [34]: 45.1% | viability, T/C [35]: 41.1% | viability, T/C [36]: 19%

CNC(=O)c1ccc(N2C(=S)N(c3ccc(C#N)c(C(F)(F)F)c3)C(=O)C2(C)C)cc1F + Cc1nc(NC(=O)N2CCCC2C(N)=O)sc1-c1ccnc(C(C)(C)C(F)(F)F)c1
pIC50 (second compound 0.0316 µM): < 5.00 | pIC50 (second compound 0.1 µM): < 5.00 | pIC50 (second compound 0.316 µM): < 5.00 | pIC50 (second compound 1 µM): < 5.00 | pIC50 (second compound 3.16 µM): < 5.00 | pIC50 (second compound 10 µM): < 5.00 | viability, T/C [1]: 87.5% | viability, T/C [2]: 108% | viability, T/C [3]: 102% | viability, T/C [4]: 108% | viability, T/C [5]: 94.1% | viability, T/C [6]: 121% | viability, T/C [7]: 85.6% | viability, T/C [8]: 87.5% | viability, T/C [9]: 78.3% | viability, T/C [10]: 90.6% | viability, T/C [11]: 90.4% | viability, T/C [12]: 114% | viability, T/C [13]: 76.1% | viability, T/C [14]: 86.1% | viability, T/C [15]: 97.8% | viability, T/C [16]: 94.4% | viability, T/C [17]: 81.9% | viability, T/C [18]: 96.2% | viability, T/C [19]: 79.1% | viability, T/C [20]: 78.9% | viability, T/C [21]: 99% | viability, T/C [22]: 96.7% | viability, T/C [23]: 113% | viability, T/C [24]: 90.9% | viability, T/C [25]: 81.3% | viability, T/C [26]: 92.2% | viability, T/C [27]: 89.1% | viability, T/C [28]: 84.7% | viability, T/C [29]: 101% | viability, T/C [30]: 86.4% | viability, T/C [31]: 81.5% | viability, T/C [32]: 74.8% | viability, T/C [33]: 73% | viability, T/C [34]: 73.9% | viability, T/C [35]: 79.1% | viability, T/C [36]: 65%
